Legend:
[1] = In vitro dissolution test (paddle method); type: physicochemical; settings: cumulative in vitro dissolution rate, 0.1 N HCl and 10 mM SDS, 37° C., 50 rpm
Procedure: The dissolution medium was a solution of 0.1 N hydrochloric acid (HCl) and 10 mM sodium dodecyl sulfonate (SDS). The instrument used in the test was RC-6 dissolution rate apparatus (Tianjin). The instrument parameters were set to 37° C., 50 rpm, the paddle method. To each dissolution vessel was added 900 ml of dissolution medium followed by initiating the instrument. When the temperature of the medium in each vessel reached 37° C., corresponding testing sample was added. One ml of sample solution was taken out at time points of 10, 20, 40, 60, 90, 120, 180, 240 and 270 minute respectively, and then 1 ml of dissolution medium was added back to supplement the vessel volume. The sample solutions collected from dissolution testing was passed through a 0.45 μm filter and the filtrate was analyzed by HPLC (Agilent, 1260) to determine the amount of DQ. An isocratic mobile phase of 80% ethanol and 20% water and a wavelength 260 nm were chosen for HPLC analysis.

[2] = Thermogravimetric analysis; type: physicochemical; settings: at 250.5° C., heating rate 10° C./min, nitrogen
Procedure: The pure DQ was weighed for thermogravimetric analysis. The instruments used in the analysis included a balance with 0.0001 accuracy (Sartorius, available from Sartorius Scientific Instruments, Model: BSA124S) and a thermogravimetric analyzer (NETZSCH, Model: TG209F1, Germany).
Detection conditions, nitrogen: 20 mL/min, scanning procedures: temperature was increased to 350° C. from room temperature, heating rate: 10° C./min; detection was performed based on the General Rules for Thermal Analysis JY/T014-1996.

[3] = system: Plasmodium berghei ANKA; test: In vivo efficacy experiment, mice inoculated with sporozoites; settings: NIH female mice, after 21 days; DQ 3, 10, 30 mg/kg; primaquine 30 mg/kg
Procedure: The NIH female mice used for the experiment were raised at least for 7 days after arrival. At the start of experiment, the mice were 7 weeks old. Only one mouse was housed in each cage maintained in a room with a temperature range of 18 to 26° C., a relative humidity of 34% to 68% in a 12/12 h light-dark cycle. Food and water were provided ad libitum during quarantine and throughout the study. This experiment was carried out in strict accordance with the relevant animal testing regulations (Guide for the Care and Use of Laboratory Animals, NRC publication, 2011 edition). The DQ suspension used in the animal experiment was from the product of Example 1, prepared with saline and subjected to ultrasonic treatment for 5 minutes. […] The detection of Plasmodium parasitemia was performed as follows: conventional method was used to count red blood cells per mm^3 of blood in that a thin film of blood was prepared and stained with 3% Giemsa for 20 minutes; and then the number of infected red blood cells per 1000 red blood cells was counted under oil microscope to obtain erythrocyte infected rate (EIR, %o). Survival rate was calculated on day 22 post-infection.
The dosage of product of Example 1 was calculated based on decoquinate mg/kg body weight, the negative control group used was saline, and the positive control group used 30 mg primaquine per kg body weight. […]

Dissolved at 60 min ([1]; 60 min)	Dissolved at 90 min ([1]; 90 min)	amount of DQ remaining by weight in thermogravimetric analysis [2] [% by weight]	Structure (SMILES)	animal survival [3]
6.87	14.60	99	CCCCCCCCCCOc1cc2c(O)c(C(=O)OCC)cnc2cc1OCC [Pure DQ, Decoquinate]	–
–	–	–	COc1cc(NC(C)CCCN)c2ncccc2c1 (stereo not shown) [primaquine]	all animals survived

— patent US10265270B2, “Solid dispersion of decoquinate, a preparation process and its application” (GUANGZHOU CAS LAMVAC BIOTECH CO., LTD., priority 2015, dated 2019)
